Assay results: ChEMBL document CHEMBL3885881, “DrugMatrix”

Organism: Rattus norvegicus
Experiment: DrugMatrix - Regimen: Daily Repeat
Format: toxicity, organism-based, Sprague-Dawley
Set-up: regimen Daily Repeat, gender Male, age 6-8 weeks
Details: in vivo, po, route oral GAVAGE, vehicle .5 % CMC; for BASOPHIL / EOSINOPHIL / ERYTHROCYTE COUNT / HEMATOCRIT / LEUKOCYTE COUNT / LYMPHOCYTE / MEAN CORPUSCULAR HEMOGLOBIN / MEAN CORPUSCULAR HEMOGLOBIN CONCENTRATION / MONOCYTE / NEUTROPHIL / PLATELET COUNT / HEMOGLOBIN / MEAN CORPUSCULAR VOLUME: tissue Blood; for ALANINE AMINOTRANSFERASE / ALBUMIN / ASPARTATE AMINOTRANSFERASE / BLOOD UREA NITROGEN / CHOLESTEROL / CREATINE PHOSPHOKINASE / CREATININE / GLUCOSE / PHOSPHORUS / POTASSIUM / SODIUM / TOTAL PROTEIN / ALKALINE PHOSPHATASE: tissue Plasma
[1] = 0 mg/kg, 72 h, dose level Control, time 3 day
[2] = 0 mg/kg, 120 h, dose level Control, time 5 day
[3] = […], 72 h, dose 0.77 mg/Kg, dose level Low, time 3 day
[4] = […], 72 h, dose 7.5 mg/Kg, dose level High, time 3 day
[5] = […], 120 h, dose 0.77 mg/Kg, dose level Low, time 5 day
[6] = […], 120 h, dose 7.5 mg/Kg, dose level High, time 5 day

## IVERMECTIN
[1]
  BASOPHIL: 0%
  EOSINOPHIL: 0.33%
  ERYTHROCYTE COUNT: 6.03 x10E6/uL
  HEMATOCRIT: 38.8%
  LEUKOCYTE COUNT: 10.64 x10E3/uL
  LYMPHOCYTE: 83.33%
  MEAN CORPUSCULAR HEMOGLOBIN: 23.64 pg
  MEAN CORPUSCULAR HEMOGLOBIN CONCENTRATION: 36.74 G/DL
  MONOCYTE: 3.33%
  NEUTROPHIL: 13%
  PLATELET COUNT: 1264.4 x10E3/uL
  ALANINE AMINOTRANSFERASE: 38.83 u/L
  ALBUMIN: 3.55 G/DL
  ASPARTATE AMINOTRANSFERASE: 66.17 u/L
  BLOOD UREA NITROGEN: 15.67 mg/dL
  CHOLESTEROL: 76.5 mg/dL
  CREATINE PHOSPHOKINASE: 166.83 u/L
  CREATININE: 0.52 mg/dL
  GLUCOSE: 173.17 mg/dL
  PHOSPHORUS: 11.68 mg/dL
  POTASSIUM: 6.43 MEQ/L
  SODIUM: 149.5 MEQ/L
  TOTAL PROTEIN: 5.93 G/DL
[2]
  BASOPHIL: 0%
  EOSINOPHIL: 0%
  ERYTHROCYTE COUNT: 5.88 x10E6/uL
  HEMATOCRIT: 37.87%
  HEMOGLOBIN: 14.48 G/DL
  LEUKOCYTE COUNT: 12.43 x10E3/uL
  LYMPHOCYTE: 84.17%
  MEAN CORPUSCULAR HEMOGLOBIN: 24.65 pg
  MEAN CORPUSCULAR HEMOGLOBIN CONCENTRATION: 38.25 G/DL
  MEAN CORPUSCULAR VOLUME: 64.47 fL
  MONOCYTE: 4.33%
  NEUTROPHIL: 11.5%
  PLATELET COUNT: 1182.33 x10E3/uL
  ALANINE AMINOTRANSFERASE: 38.67 u/L
  ALBUMIN: 3.55 G/DL
  ALKALINE PHOSPHATASE: 342.5 u/L
  ASPARTATE AMINOTRANSFERASE: 63.33 u/L
  BLOOD UREA NITROGEN: 15.5 mg/dL
  CHOLESTEROL: 75.5 mg/dL
  CREATINE PHOSPHOKINASE: 142.5 u/L
  CREATININE: 0.62 mg/dL
  GLUCOSE: 165.17 mg/dL
  PHOSPHORUS: 10.87 mg/dL
  POTASSIUM: 6.85 MEQ/L
  SODIUM: 150.17 MEQ/L
  TOTAL PROTEIN: 5.93 G/DL
[3]
  BASOPHIL: 0%
  EOSINOPHIL: 0%
  ERYTHROCYTE COUNT: 5.86 x10E6/uL
  HEMATOCRIT: 37.37%
  HEMOGLOBIN: 14 G/DL
  LEUKOCYTE COUNT: 13.5 x10E3/uL
  LYMPHOCYTE: 81.33%
  MEAN CORPUSCULAR HEMOGLOBIN: 23.97 pg
  MEAN CORPUSCULAR HEMOGLOBIN CONCENTRATION: 37.5 G/DL
  MONOCYTE: 4%
  NEUTROPHIL: 14.67%
  PLATELET COUNT: 1163.33 x10E3/uL
  ALANINE AMINOTRANSFERASE: 35 u/L
  ALKALINE PHOSPHATASE: 418 u/L
  ASPARTATE AMINOTRANSFERASE: 56 u/L
  BLOOD UREA NITROGEN: 12.67 mg/dL
  CHOLESTEROL: 77.33 mg/dL
  CREATINE PHOSPHOKINASE: 149.33 u/L
  CREATININE: 0.5 mg/dL
  PHOSPHORUS: 13.27 mg/dL
  POTASSIUM: 6.9 MEQ/L
  SODIUM: 150.33 MEQ/L
  TOTAL PROTEIN: 5.73 G/DL
[4]
  BASOPHIL: 0%
  EOSINOPHIL: 0%
  ERYTHROCYTE COUNT: 6.06 x10E6/uL
  HEMATOCRIT: 37.9%
  HEMOGLOBIN: 13.7 G/DL
  LEUKOCYTE COUNT: 13 x10E3/uL
  LYMPHOCYTE: 92%
  MEAN CORPUSCULAR HEMOGLOBIN: 22.6 pg
  MEAN CORPUSCULAR HEMOGLOBIN CONCENTRATION: 36.1 G/DL
  MONOCYTE: 4%
  NEUTROPHIL: 4%
  PLATELET COUNT: 1400 x10E3/uL
  ALANINE AMINOTRANSFERASE: 31 u/L
  ALKALINE PHOSPHATASE: 420 u/L
  ASPARTATE AMINOTRANSFERASE: 57 u/L
  CHOLESTEROL: 70 mg/dL
  CREATINE PHOSPHOKINASE: 190 u/L
  CREATININE: 0.5 mg/dL
  PHOSPHORUS: 13.3 mg/dL
  POTASSIUM: 6.93 MEQ/L
  SODIUM: 150.33 MEQ/L
[5]
  BASOPHIL: 0%
  EOSINOPHIL: 0%
  ERYTHROCYTE COUNT: 5.85 x10E6/uL
  HEMATOCRIT: 37.25%
  HEMOGLOBIN: 14 G/DL
  LEUKOCYTE COUNT: 11.3 x10E3/uL
  LYMPHOCYTE: 94%
  MEAN CORPUSCULAR HEMOGLOBIN: 23.95 pg
  MEAN CORPUSCULAR HEMOGLOBIN CONCENTRATION: 37.6 G/DL
  MONOCYTE: 0%
  NEUTROPHIL: 6%
  PLATELET COUNT: 1300.5 x10E3/uL
  ALANINE AMINOTRANSFERASE: 36.33 u/L
  ALKALINE PHOSPHATASE: 489 u/L
  ASPARTATE AMINOTRANSFERASE: 59.67 u/L
  BLOOD UREA NITROGEN: 15.67 mg/dL
  CHOLESTEROL: 69.67 mg/dL
  CREATINE PHOSPHOKINASE: 135.67 u/L
  CREATININE: 0.53 mg/dL
  GLUCOSE: 195.33 mg/dL
  PHOSPHORUS: 13.07 mg/dL
  POTASSIUM: 6.87 MEQ/L
  TOTAL PROTEIN: 5.7 G/DL
[6]
  BASOPHIL: 0%
  EOSINOPHIL: 0.33%
  ERYTHROCYTE COUNT: 6.11 x10E6/uL
  HEMATOCRIT: 40.07%
  HEMOGLOBIN: 15 G/DL
  LEUKOCYTE COUNT: 16.37 x10E3/uL
  LYMPHOCYTE: 90%
  MEAN CORPUSCULAR HEMOGLOBIN CONCENTRATION: 37.43 G/DL
  MEAN CORPUSCULAR VOLUME: 65.57 fL
  MONOCYTE: 1%
  PLATELET COUNT: 1335.33 x10E3/uL
  ALANINE AMINOTRANSFERASE: 29.33 u/L
  ALKALINE PHOSPHATASE: 361 u/L
  ASPARTATE AMINOTRANSFERASE: 51.67 u/L
  BLOOD UREA NITROGEN: 15.67 mg/dL
  CHOLESTEROL: 64.67 mg/dL
  CREATINE PHOSPHOKINASE: 155.67 u/L
  CREATININE: 0.53 mg/dL
  GLUCOSE: 166.33 mg/dL
  PHOSPHORUS: 13.37 mg/dL
  POTASSIUM: 7.1 MEQ/L
  SODIUM: 147 MEQ/L
  TOTAL PROTEIN: 5.7 G/DL
